Experimental data published in patent US5817689A, “Indole derivatives having a 2-phenyl-ethanolamino-substituted lower alkyl group at the 2-or 3-position thereof” (priority 1994, dated 1998).
Structures can show the parent of a compound that is named as a salt. Where two headings read alike, the source gives them in different places.

Tests used:
[1] = biological target: T1, human β3 -adrenergic receptor (Homo sapiens, UniProt P13945); assay: Human β3-adrenergic receptor-stimulating activity (cAMP accumulation in CHO/pKREX10-36 cells); type: cell-based; settings: for Emax: read-out: I.A. value β3 -receptor; for stimulating activity of human β3 -adrenergic receptor (in words): conclusion from Table 5; for Ratio of EC50 β2 /β3: ratio of EC50 β2-receptor to EC50 β3-receptor
T1 construct: expressed in transfected cells; host or cells: CHO-K1 (ATCC CCL 61), clone CHO/pKREX10-36
T1 sequence (P13945 whole entry): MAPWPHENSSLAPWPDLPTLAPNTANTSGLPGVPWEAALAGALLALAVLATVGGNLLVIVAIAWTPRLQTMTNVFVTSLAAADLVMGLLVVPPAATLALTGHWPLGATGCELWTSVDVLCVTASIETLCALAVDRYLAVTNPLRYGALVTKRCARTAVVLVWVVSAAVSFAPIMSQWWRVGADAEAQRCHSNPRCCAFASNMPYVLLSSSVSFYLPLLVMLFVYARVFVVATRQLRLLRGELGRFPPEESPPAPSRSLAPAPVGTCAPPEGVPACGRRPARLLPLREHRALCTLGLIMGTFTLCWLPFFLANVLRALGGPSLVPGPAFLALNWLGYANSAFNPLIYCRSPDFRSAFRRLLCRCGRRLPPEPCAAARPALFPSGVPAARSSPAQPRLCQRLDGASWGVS
Description: Establishment of the cell line highly expressing human β3 -adrenergic receptor
Separately, another expression vector for animal cells, pSV2-neo [Southern and Berg, J. Mol. Appl. Genet. […] These DNAs were ligated with DNA Ligation Kit (Takara Shuzo Co., Ltd.) and were introduced into E. coli HB101 in a conventional manner to give the transformants. Plasmid DNAs were prepared from the transformants and digested with a restriction endonuclease PstI. A clone which produced about 3.8 kbp, 2.2 kbp, 1.4 kbp, and 0.9 kbp fragments was selected to give a plasmid named pKCN0.
The reaction mixture was used for transformation of E. coli HB101 and plasmid DNAs were prepared from the selected transformants. The plasmid DNAs were digested with restriction endonucleases DraI and HindIII, and a clone which produced about 430 bp fragment was selected to give a plasmid named pKCN1 for expression vector.
10% Dimethyl sulfoxide was added to the reaction mixture at the PCR reaction.
After the reaction mixture was digested with restriction endonucleases Sse8387I and StuI, about 1.3 kbp fragment was isolated by electrophoresis. This fragment was ligated with expression vector pKCN1 which was digested with restriction endonucleases Sse8387I and EcoRV, and the resultant was introduced into E. coli HB101 in a conventional manner. Plasmid DNA was prepared from the selected transformant and the nucleotide sequence of the about 1.3 kbp fragment obtained by digestion of the plasmid DNA with restriction endonucleases Sse8387I and XhoI was determined. […] This plasmid for expressing human β3 -adrenergic receptor was named as pKREX10.
The reaction mixture was filtered with glass filter GF/C (Whatman) presoaked with 0.3% polyethyleneimine and washed by using BIO-DOT apparatus (Bio-Rad Laboratories), and the radioactivity on the filter was counted by γ-ray counter. […] Establishment of the cell line highly expressing human β2 -adrenergic receptor
(§1) Experiment 1 Human β-adrenergic receptor-stimulating activity:
(§2) The cells were peeled off by incubation with phosphate-buffered saline containing 0.5 mM EDTA at 37° C. for 10 minutes after the medium was removed. The CHO/pKREX10-36 cells were collected by centrifugation, and suspended in Hanks' balanced salts (ICN Biomedicals) containing 1 mM L-ascorbic acid and 1 mM 3-isobutyl-1-methylxanthine at the concentration of about 2×10^6cells/ml. This suspension (100μl) and a test compound were mixed in the same balanced salt (500 μl) and incubated at 37° C. for 30 minutes, followed by boiling for 5 minutes to terminate the reaction. After centrifugation of the reaction mixture, the amount of cAMP in the supernatant was measured by using cAMP EIA System (Amersham).

[2] = biological target: T2, human β2 -adrenergic receptor (Homo sapiens, UniProt P07550); assay: Human β2-adrenergic receptor-stimulating activity (cAMP accumulation in CHO/pKREX21-8 cells); type: cell-based; settings: for I.A. value β2 -receptor: intrinsic activity: maximal cAMP response relative to 10^-5 M (-)-isoproterenol = 100%; for Emax: read-out: I.A. value β2 -receptor
T2 construct: expressed in transfected cells; host or cells: CHO-K1, clone CHO/pKREX21-8
T2 sequence (P07550 whole entry): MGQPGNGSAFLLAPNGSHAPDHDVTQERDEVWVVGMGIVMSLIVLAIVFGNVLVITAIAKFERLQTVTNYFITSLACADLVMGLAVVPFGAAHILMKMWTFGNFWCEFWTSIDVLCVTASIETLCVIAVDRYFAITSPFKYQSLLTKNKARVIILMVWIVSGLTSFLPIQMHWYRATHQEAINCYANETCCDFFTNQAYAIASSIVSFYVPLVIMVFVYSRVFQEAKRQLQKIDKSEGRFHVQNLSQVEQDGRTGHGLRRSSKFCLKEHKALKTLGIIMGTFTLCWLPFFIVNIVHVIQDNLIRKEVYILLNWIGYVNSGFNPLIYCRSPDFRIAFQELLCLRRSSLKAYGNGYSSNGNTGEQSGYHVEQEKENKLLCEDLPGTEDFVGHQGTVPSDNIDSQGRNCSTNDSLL
Source text: cDNA was synthesized with Poly(A)^+ RNA derived from human brain (Clontech: trade number; CL6516-1) by using SuperScript Systems (Life Technologies).
After the reaction mixture was digested with restriction endonucleases Sse8387I and HindIII, about 1.4 kbp fragment was isolated by electrophoresis. This fragment was ligated with expression vector pKCN1 digested with restriction endonucleases Sse8387I and HindIII, and was introduced into E. coli HB101 in a conventional manner. Plasmid DNA was prepared from the selected transformant, and the nucleotide sequence of the about 1.4 kbp fragment obtained by digestion of this plasmid DNA with restriction endonucleases Sse8387I and HindIII was determined. […] This plasmid was named as pKREX21 for highly expressing human β2 -adrenergic receptor, and was introduced into CHO-K1 in the same manner as the method of establishment of the cell line highly expressing human β3 -adrenergic receptor.
as §1, §2
Similarly, the amount of cAMP was measured by using CHO/pKREX21-8 for highly expressing human β2 -adrenergic receptor instead of the CHO/pKREX10-36 for highly expressing human β3 -adrenergic receptor.

[3] = test system: glucose level in the blood; assay: Blood glucose reducing activity on fasted mouse; type: in vivo, ddY male mouse; settings: 3 h, read-out: Blood glucose reducing activity (ED25)
Description: Experiment 2 Blood glucose reducing activity on fasted mouse:
A test compound suspended in 0.5% tragacanth solution was orally administered to a ddY male mouse (weight: 20-30 g) under being fasted, and the blood was collected before and at three hours after the administration of the test compound. The glucose level in the blood was determined by the method of Kunst A., et al. (Hexokinase/G6PDH method) [Bergmeyer, H. U. (eds.), […], vol. VI, 3rd edition, Verlag Chemie GmbH, Weinheim·Deerfield Beach, Florida·Basel, 163-172 (1984)]. The blood glucose reducing activity of the test compound was expressed by ED25 value which is a concentration of the test compound required to reduce the glucose level in blood before the administration of the test compound by 25%. Gliclazide was used as a reference compound which is a commercially available drug for treatment of diabetes mellitus.

[4] = test system: retroperitoneal (white) and interscapular (brown) adipose tissue; assay: Anti-obesity activity on diabetic obese mouse; type: in vivo, diabetic obese mouse (KK-Ay/Ta, Jcl. female); settings: 3 mg/kg/day oral for three weeks, significantly different from control, p < 0.01
Description: Experiment 3 Anti-obesity activity on diabetic obese mouse:
A test compound suspended in 0.5% tragacanth solution was orally administrated to a diabetic obese mouse (KK-Ay/Ta, Jcl. female; 50-60 g, Clea Japan Inc.) at a dose of 3 mg/kg/day for three weeks, and then, the retroperitoneal adipose tissue and the interscapulal adipose tissue were taken, and the weights thereof were measured as white adipose tissue and brown adipose tissue, respectively.

[5] = test system: Central nervous system; settings: literature compound; cited from earlier work
[6] = test system: bacteria; settings: literature compound; cited from earlier work
[7] = 50% of cAMP accumulation, CHO/pKREX10-36, 37° C., 30 minutes, read-out: EC50 value β3 -receptor
[8] = 25% reduction of blood glucose, fasted ddY male mice, oral, three hours after administration

Structure (SMILES): CC(Cc1c[nH]c2cc(OCC(=O)O)ccc12)NCC(O)c1cccc(Cl)c1 (centres unmarked) [Example 13, 2-[3-(6-carboxymethoxyindol-3-yl)-2-propylamino]-1-(3-chlorophenyl)ethanolsodium salt]
- EC50 [1]: 31 nM
- Emax [1]: 101%
- I.A. value β2 -receptor [2]: 6%

Structure (SMILES): COC(=O)COc1cccc2c(CC(C)NC[C@H](O)c3cccc(Cl)c3)c[nH]c12 (stereo partly drawn) [Example 14, 2-[3-(7-methoxycarbonylmethoxyindol-3-yl)-2-propylamino]-(1R)-1-(3-chlorophenyl)ethanol]
- EC50 [1]: 0.43 nM
- stimulating activity of human β3 -adrenergic receptor (in words) [1]: potent stimulating activity of human β3 -adrenergic receptor
- Ratio of EC50 β2 /β3 [1]: 14.0
- Emax [1]: 95%
- adrenoceptor selectivity for human β3 -adrenergic receptor (in words) ([1]; β3 versus β2, conclusion from Table 5): excellent adrenoceptor selectivity for human β3 -adrenergic receptor
- EC50 [2]: 6 nM
- Emax [2]: 29%

Structure (SMILES): CC(Cc1c[nH]c2c(OCc3ccccc3)cccc12)NCC(O)c1cccc(Cl)c1 (centres unmarked) [Example 4]
- EC50 [1]: 16 nM
- Ratio of EC50 β2 /β3 [1]: 2.7
- Emax [1]: 116%
- EC50 [2]: 43 nM
- Emax [2]: 36%

Structure (SMILES): COc1cccc2c(CC(C)NCC(O)c3cccc(Cl)c3)c[nH]c12 (centres unmarked) [Example 1, 2-[3-(7-methoxyindol-3-yl)-2-propylamino]-1-(3-chlorophenyl)ethanol]
- EC50 [1, 7]: 1.7 nM
- Emax [1]: 113%
- EC50 [2]: 25 nM
- Emax [2]: 33%
- ED25 ([3]; po): 0.05 mg/kg
- Weight of brown adipose tissue ([4]; control 0.460 ± 0.03): 0.289 ± 0.04 g
- Weight of white adipose tissue ([4]; control 4.92 ± 0.28): 2.35 ± 0.12 g

Structure (SMILES): CC(Cc1c[nH]c2ccccc12)NCC(O)c1ccc(O)c(O)c1 (centres unmarked)
- Pharmacological Activity (central nervous system) [5]: Central nervous system inhibitory

Structure (SMILES): CCOc1cccc2c(CC(C)NCC(O)c3cccc(Cl)c3)c[nH]c12 (centres unmarked) [Example 2, 2-[3-(7-ethoxyindol-3-yl)-2-propylamino]-1-(3-chlorophenyl)ethanol]
- EC50 [1]: 2 nM
- stimulating activity of human β3 -adrenergic receptor (in words) [1]: potent stimulating activity of human β3 -adrenergic receptor
- Emax [1]: 117%
- EC50 [2]: 55 nM
- Emax [2]: 31%
- ED25 ([3]; po): 0.03 mg/kg

Structure (SMILES): Cc1ccc2c(CC(C)NCC(O)c3cccc(Cl)c3)c[nH]c2c1 (centres unmarked) [Example 5]
- EC50 [1, 7]: 12 nM
- Emax [1]: 95%
- EC50 [2]: 33 nM
- Emax [2]: 41%
- ED25 ([3]; po): 4.5 mg/kg

Structure (SMILES): Cc1cccc2[nH]cc(CC(C)NCC(O)c3cccc(Cl)c3)c12 (centres unmarked) [Example 10]
- ED25 [3, 8]: 0.1 mg/kg

Structure (SMILES): CCOc1cccc2c(CC(C)NC[C@H](O)c3cccc(Cl)c3)c[nH]c12 (stereo partly drawn) [Example 2-A, 2-[3-(7-ethoxyindol-3-yl)-2-propylamino]-(1R)-1-(3-chlorophenyl)ethanol]
- EC50 [1, 7]: 0.96 nM
- Emax [1]: 96%
- EC50 [2]: 15 nM
- Emax [2]: 23%

Structure (SMILES): COc1ccc(C(O)CNCCc2c[nH]c3ccccc23)cc1Br (centres unmarked)
- Pharmacological Activity (antibacterial) [6]: Antibacterial activity

Structure (SMILES): CC(C)NC[C@H](O)c1ccc(O)c(O)c1 [IP, (-)Isoproterenol, reference compound]
- I.A. value β3 -receptor ([1]; intrinsic activity: maximal cAMP response relative to 10^-5 M (-)-isoproterenol = 100%): 100%

Structure (SMILES): Cc1cccc2c(CC(C)NCC(O)c3cccc(Cl)c3)c[nH]c12 (centres unmarked) [Example 6]
- EC50 [1]: 35 nM
- Ratio of EC50 β2 /β3 [1]: 2.5
- Emax [1]: 91%
- EC50 [2]: 88 nM
- Emax [2]: 19%
- ED25 ([3]; po): 4.5 mg/kg

Structure (SMILES): COc1ccc2c(CC(C)NCC(O)c3cccc(Cl)c3)c[nH]c2c1OC (centres unmarked) [Example 12]
- EC50 [1]: 4 nM
- Ratio of EC50 β2 /β3 [1]: 7.8
- Emax [1]: 98%
- EC50 [2]: 31 nM
- Emax [2]: 13%

Structure (SMILES): OC(CNCCc1c[nH]c2ccc(Cl)cc12)c1ccccc1 (centres unmarked) [Compound A, reference compound]
- EC50 [1, 7]: 910 nM
- stimulating activity of human β3 -adrenergic receptor (in words) [1]: quite weak human β3 -adrenergic receptor-stimulating activity
- Ratio of EC50 β2 /β3 [1]: 0.5
- Emax [1]: 92%
- EC50 ([2]; 50% of cAMP accumulation, CHO/pKREX21-8, 37° C., 30 minutes, read-out: EC50 value β2 -receptor): 410 nM
- Emax [2]: 16%

Structure (SMILES): Cc1ccc(S(=O)(=O)NC(=O)NN2CC3CCCC3C2)cc1 (centres unmarked) [Gliclazide, reference compound]
- ED25 [3, 8]: 0.87 mg/kg

Structure (SMILES): COC(=O)COc1ccc2c(CC(C)NCC(O)c3cccc(Cl)c3)c[nH]c2c1 (centres unmarked) [Example 7]
- EC50 [1]: 25 nM
- Ratio of EC50 β2 /β3 [1]: 1.3
- Emax [1]: 76%
- EC50 [2]: 33 nM
- Emax [2]: 15%
- ED25 ([3]; po): 1.5 mg/kg

Structure (SMILES): COc1cccc2c(CC(C)NC[C@H](O)c3cccc(Cl)c3)c[nH]c12 (single isomer, unassigned) [Example 1-A-b, 2-[(2S or 2R)-3-(7-methoxyindol-3-yl)-2-propylamino]-(1R)-1-(3-chlorophenyl)ethanol]
- EC50 [1]: 0.36 nM
- Emax [1]: 89%
- EC50 [2]: 3.6 nM
- Emax [2]: 35%

Structure (SMILES): OC(CNCCc1c[nH]c2ccccc12)c1ccccc1 (centres unmarked) [Compound B, reference compound]
- EC50 [1, 7]: 180 nM
- stimulating activity of human β3 -adrenergic receptor (in words) [1]: quite weak human β3 -adrenergic receptor-stimulating activity
- Emax [1]: 100%
- I.A. value β2 -receptor [2]: 8%

Structure (SMILES): COC(=O)c1ccc2c(CC(C)NCC(O)c3cccc(Cl)c3)c[nH]c2c1 (centres unmarked) [Example 8]
- EC50 [1]: 31 nM
- Emax [1]: 92%
- I.A. value β2 -receptor [2]: 5%
- ED25 ([3]; po): 1.4 mg/kg

Structure (SMILES): COc1ccc2c(CC(C)NCC(O)c3cccc(Cl)c3)c[nH]c2c1 (centres unmarked) [Example 3]
- EC50 [1, 7]: 22 nM
- Emax [1]: 102%
- EC50 [2]: 170 nM
- Emax [2]: 22%
- ED25 ([3]; po): 3.3 mg/kg

Structure (SMILES): O=[N+]([O-])c1cccc(C(O)CNCCc2c[nH]c3ccccc23)c1 (centres unmarked) [Compound C, reference compound]
- EC50 [1, 7]: 540 nM
- stimulating activity of human β3 -adrenergic receptor (in words) [1]: quite weak human β3 -adrenergic receptor-stimulating activity
- Emax [1]: 105%
- I.A. value β2 -receptor [2]: 5%
